Where two headings read alike, the source gives them in different places.
Legend:
[1] = target: wild-type un-phosphorylated FGFR3 (Homo sapiens, UniProt P22607); assay: FGFR Enzymatic Assay (FRET peptide phosphorylation), FGFR3
[2] = target: wild-type un-phosphorylated FGFR1 (Homo sapiens, UniProt P11362); assay: FGFR Enzymatic Assay (FRET peptide phosphorylation), FGFR1; settings: pre-incubated for 4 hours
[3] = target: wild-type un-phosphorylated FGFR2 (Homo sapiens, UniProt P21802); assay: FGFR Enzymatic Assay (FRET peptide phosphorylation), FGFR2
Sequence of wild-type un-phosphorylated FGFR2 (P21802 22-821): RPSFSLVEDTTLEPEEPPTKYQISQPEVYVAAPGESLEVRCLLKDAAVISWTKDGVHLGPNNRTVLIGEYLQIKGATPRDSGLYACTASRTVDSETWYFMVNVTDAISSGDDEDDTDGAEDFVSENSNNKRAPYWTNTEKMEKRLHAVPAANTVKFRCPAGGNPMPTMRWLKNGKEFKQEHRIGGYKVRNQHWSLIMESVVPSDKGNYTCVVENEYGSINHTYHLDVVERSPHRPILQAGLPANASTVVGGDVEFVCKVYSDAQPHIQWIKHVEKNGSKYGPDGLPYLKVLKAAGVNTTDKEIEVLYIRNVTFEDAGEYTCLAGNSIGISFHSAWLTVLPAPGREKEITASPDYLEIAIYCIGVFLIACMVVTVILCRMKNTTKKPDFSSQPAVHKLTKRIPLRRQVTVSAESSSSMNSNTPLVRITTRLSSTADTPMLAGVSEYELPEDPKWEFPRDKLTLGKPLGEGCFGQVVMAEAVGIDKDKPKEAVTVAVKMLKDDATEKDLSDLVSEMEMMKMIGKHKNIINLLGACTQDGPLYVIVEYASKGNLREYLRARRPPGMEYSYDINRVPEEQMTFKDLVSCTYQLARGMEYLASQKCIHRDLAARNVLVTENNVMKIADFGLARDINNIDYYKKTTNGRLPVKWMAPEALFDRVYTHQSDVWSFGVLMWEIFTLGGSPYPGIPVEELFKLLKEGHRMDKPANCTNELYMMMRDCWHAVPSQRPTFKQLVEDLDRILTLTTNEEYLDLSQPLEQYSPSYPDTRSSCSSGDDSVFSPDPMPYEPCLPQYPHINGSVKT
Experimental: The inhibitor potency of the exemplified compounds was determined in an enzyme discontinuous assay that measures peptide phosphorylation using FRET measurements to detect product formation. Inhibitors were serially diluted in DMSO and a volume of 0.2 μL was transferred to the wells of a 384-well plate. […] Appropriate controls (enzyme blank and enzyme with no inhibitor) were included on the plate. […] The 10 μL/well reaction concentration of the peptide substrate was 500 nM whereas the ATP concentration was maintained near or below the ATP Km. The ATP Km values were pre-determined in a separate series of experiments. The reaction plate was incubated at 25° C. for 1 hr and the reactions were ended with the addition of 5 μL/well of quench solution (50 mM Tris, 150 mM NaCl, 0.5 mg/mL BSA, pH 7.8; 45 mM EDTA, 600 nM staurosporin, with Perkin Elmer Lance Reagents at 3.75 nM Eu-antibody PY20 and 180 nM APC-Streptavidin). The plate was allowed to equilibrate for ˜10 minutes at ambient temperature before scanning on a PheraStar plate reader (BMG Labtech) instrument.
Either GraphPad prism or XLfit was used to analyze the data. The IC50 values were derived by fitting the data to a four parameter logistic equation producing a sigmoidal dose-response curve with a variable Hill coefficient. Prism equation: Y=Bottom+(Top-Bottom)/(1+10^((Log IC50-X)*Hill slope)); XLfit equation: Y=(A+((B−A)/(1+((X/C)^D)))) where X is the logarithm of inhibitor concentration and Y is the response.
GraphPad prism3 was used to analyze the data. The IC50 values were derived by fitting the data to the equation for a sigmoidal dose-response with a variable slope. Y=Bottom+(Top-Bottom)/(1+10^((Log IC50-X)*Hill Slope)) where X is the logarithm of concentration and Y is the response.
The data in Table 1 was measured in wild-type un-phosphorylated FGFR1, FGFR2, FGFR3, and FGFR4 proteins.

[4] = read-out: FGFR1, wild-type un-phosphorylated FGFR1
[5] = FGFR1, wild-type un-phosphorylated FGFR1
[6] = read-out: FGFR2, wild-type un-phosphorylated FGFR2, pre-incubated for 4 hours

Sequence of wild-type un-phosphorylated FGFR1 (P11362 22-822): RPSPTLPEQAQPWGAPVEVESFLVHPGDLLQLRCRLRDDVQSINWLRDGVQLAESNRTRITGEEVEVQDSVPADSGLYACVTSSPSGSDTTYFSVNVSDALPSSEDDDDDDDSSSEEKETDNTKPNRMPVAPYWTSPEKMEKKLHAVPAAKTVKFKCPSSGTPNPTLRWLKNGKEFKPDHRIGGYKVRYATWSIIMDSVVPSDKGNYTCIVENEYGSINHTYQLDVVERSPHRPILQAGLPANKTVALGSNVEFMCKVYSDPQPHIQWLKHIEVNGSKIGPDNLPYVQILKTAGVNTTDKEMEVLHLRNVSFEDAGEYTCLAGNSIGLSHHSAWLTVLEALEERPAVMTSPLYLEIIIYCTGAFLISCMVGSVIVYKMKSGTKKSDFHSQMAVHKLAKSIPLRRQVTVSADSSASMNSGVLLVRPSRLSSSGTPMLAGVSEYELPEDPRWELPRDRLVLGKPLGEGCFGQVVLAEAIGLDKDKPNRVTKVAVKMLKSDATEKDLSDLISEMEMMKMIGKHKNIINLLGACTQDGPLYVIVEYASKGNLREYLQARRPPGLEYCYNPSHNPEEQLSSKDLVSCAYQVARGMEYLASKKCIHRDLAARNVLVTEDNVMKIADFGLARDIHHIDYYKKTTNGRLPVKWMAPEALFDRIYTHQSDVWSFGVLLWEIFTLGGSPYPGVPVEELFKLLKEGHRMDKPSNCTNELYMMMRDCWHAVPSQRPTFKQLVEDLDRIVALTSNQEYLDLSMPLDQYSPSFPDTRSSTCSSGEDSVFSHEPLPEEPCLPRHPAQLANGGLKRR
Sequence of wild-type un-phosphorylated FGFR3 (P22607 23-806): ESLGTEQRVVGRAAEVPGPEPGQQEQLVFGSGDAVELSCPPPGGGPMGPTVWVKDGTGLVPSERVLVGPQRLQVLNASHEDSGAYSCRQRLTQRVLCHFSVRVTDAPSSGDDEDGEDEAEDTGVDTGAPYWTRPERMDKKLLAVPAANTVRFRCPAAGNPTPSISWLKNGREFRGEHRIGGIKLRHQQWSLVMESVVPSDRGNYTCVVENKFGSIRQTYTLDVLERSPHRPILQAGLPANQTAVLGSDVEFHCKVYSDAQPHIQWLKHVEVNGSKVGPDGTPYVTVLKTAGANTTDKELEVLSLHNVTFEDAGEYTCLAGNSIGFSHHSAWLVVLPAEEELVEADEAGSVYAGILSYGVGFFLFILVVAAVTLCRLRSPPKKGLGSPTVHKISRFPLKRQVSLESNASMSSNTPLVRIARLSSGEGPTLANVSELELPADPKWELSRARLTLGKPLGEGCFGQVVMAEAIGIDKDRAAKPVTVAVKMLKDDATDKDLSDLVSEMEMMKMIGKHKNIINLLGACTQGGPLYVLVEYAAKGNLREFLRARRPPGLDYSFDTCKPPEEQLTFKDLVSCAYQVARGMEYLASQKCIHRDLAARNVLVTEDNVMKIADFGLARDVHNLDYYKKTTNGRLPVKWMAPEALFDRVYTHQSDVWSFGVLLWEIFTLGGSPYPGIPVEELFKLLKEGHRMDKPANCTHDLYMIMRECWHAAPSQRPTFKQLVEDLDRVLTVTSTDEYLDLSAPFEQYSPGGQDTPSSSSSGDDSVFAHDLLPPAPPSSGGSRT

SMILES | IC50 [1] [nM] | IC50 [2, 4] [nM] | IC50 [3] [nM] | IC50 [2, 5] [nM] | IC50 [3, 6] [nM] | IC50 ([1]; read-out: FGFR3, wild-type un-phosphorylated FGFR3, pre-incubated for 4 hours) [nM]
COc1cc2[nH]nc(-c3cnn([C@H]4CC[C@@H](NC(C)=O)CC4)c3)c2nc1-c1cccc2c1CCC2 [Example 53, N-((cis)-4-(4-(5-(2,3-Dihydro-1H-inden-4-yl)-6-methoxy-1H-pyrazolo[4,3-b]pyridin-3-yl)-1H-pyrazol-1-yl)cyclohexyl)acetamide] | < 6 |  |  | 40 to 100 |  | 
COc1cc2[nH]nc(-c3cnn(C4CCN(C(C)=O)CC4)c3)c2nc1-c1cccc(C)c1C [Example 69, 1-(4-(4-(5-(2,3-Dimethylphenyl)-6-methoxy-1H-pyrazolo[4,3-b]pyridin-3-yl)-1H-pyrazol-1-yl)piperidin-1-yl)ethan-1-one] | < 6 |  |  | > 100 |  | 
CCOc1cc2[nH]nc(-c3cnn(C)c3)c2nc1-c1cccc2c1CCC2 [Example 26, 5-(2,3-Dihydro-1H-inden-4-yl)-6-ethoxy-3-(1-methyl-1H-pyrazol-4-yl)-1H-pyrazolo[4,3-b]pyridine] | < 6 |  |  | > 100 |  | 
COc1cc2[nH]nc(-c3ccc(N4CC[C@H](N(C)C(=O)CO)C4)nc3)c2nc1-c1cccc(C)c1C [Example 88, (S)-N-(1-(5-(5-(2,3-Dimethylphenyl)-6-methoxy-1H-pyrazolo[4,3-b]pyridin-3-yl)pyridin-2-yl)pyrrolidin-3-yl)-2-hydroxy-N-methylacetamide] | < 6 |  |  | 40 to 100 |  | 
COc1cc2[nH]nc(-c3cnn(C)c3)c2nc1-c1cccc2c1CCC2O (single isomer, unassigned) [Example 7, 4-(6-Methoxy-3-(1-methyl-1H-pyrazol-4-yl)-1H-pyrazolo[4,3-b]pyridin-5-yl)-2,3-dihydro-1H-inden-1-ol] | < 6 |  |  | 40 to 100 |  | 
CCN1CCC(n2cc(-c3n[nH]c4cc(OC)c(-c5cccc6c5CCC6)nc34)cn2)C1 (stereo not drawn) [Example 15, 5-(2,3-Dihydro-1H-inden-4-yl)-3-(1-(1-ethylpyrrolidin-3-yl)-1H-pyrazol-4-yl)-6-methoxy-1H-pyrazolo[4,3-b]pyridine] | < 6 |  |  | 40 to 100 |  | 
COc1cc2[nH]nc(-c3cnn(C)c3)c2nc1-c1cccc2c1CCC2O (single isomer, unassigned) [Example 8, 4-(6-Methoxy-3-(1-methyl-1H-pyrazol-4-yl)-1H-pyrazolo[4,3-b]pyridin-5-yl)-2,3-dihydro-1H-inden-1-ol] |  |  |  | > 100 |  | < 6
CNc1cc2[nH]nc(-c3cnn(C)c3)c2nc1-c1cccc2c1CCC2 [Example 37, 5-(2,3-Dihydro-1H-inden-4-yl)-N-methyl-3-(1-methyl-1H-pyrazol-4-yl)-1H-pyrazolo[4,3-b]pyridin-6-amine] | < 6 |  |  | > 100 |  | 
COc1cc2[nH]nc(-c3cnn(C4CC4)c3)c2nc1-c1cccc(C)c1C [Example 67, 3-(1-Cyclopropyl-1H-pyrazol-4-yl)-5-(2,3-dimethylphenyl)-6-methoxy-1H-pyrazolo[4,3-b]pyridine] | < 6 |  |  | > 100 |  | 
COc1cc2[nH]nc(-c3cnn(C)c3)c2nc1-c1cccc2c1CCC2C#N (stereo not drawn) [Example 9, 4-(6-Methoxy-3-(1-methyl-1H-pyrazol-4-yl)-1H-pyrazolo[4,3-b]pyridin-5-yl)-2,3-dihydro-1H-indene-1-carbonitrile] | < 6 |  |  | 40 to 100 |  | 
COC(=O)N1CC(n2cc(-c3n[nH]c4cc(OC)c(-c5cccc(C)c5C)nc34)cn2)C1 [Example 71, Methyl 3-(4-(5-(2,3-dimethylphenyl)-6-methoxy-1H-pyrazolo[4,3-b]pyridin-3-yl)-1H-pyrazol-1-yl)azetidine-1-carboxylate] | < 6 |  |  | > 100 |  | 
COc1cc2[nH]nc(-c3cnn(C4CCNC4)c3)c2nc1-c1cccc2c1CCC2 (stereo not drawn) [Example 14, 5-(2,3-Dihydro-1H-inden-4-yl)-6-methoxy-3-(1-(pyrrolidin-3-yl)-1H-pyrazol-4-yl)-1H-pyrazolo[4,3-b]pyridine] | < 6 |  |  | 40 to 100 |  | 
Cn1cc(-c2n[nH]c3cc(C(F)F)c(-c4cccc5c4CCC5)nc23)cn1 [Example 35, 6-(Difluoromethyl)-5-(2,3-dihydro-1H-inden-4-yl)-3-(1-methyl-1H-pyrazol-4-yl)-1H-pyrazolo[4,3-b]pyridine] | < 6 |  |  | 40 to 100 |  | 

The next lines start with the values.

IC50 [1] [nM] | IC50 [2, 4] [nM] | IC50 [3] [nM] | IC50 [2, 5] [nM] | IC50 [3, 6] [nM] | IC50 ([1]; read-out: FGFR3, wild-type un-phosphorylated FGFR3, pre-incubated for 4 hours) [nM] | SMILES
< 6 | 6 to 40 | < 6 |  |  |  | COc1cc2[nH]nc(-c3cnn(C45CC4CN(C(=O)CO)C5)c3)c2nc1-c1cccc2c1CCC2 (stereo not drawn) [Example 197, 1-(1-(4-(5-(2,3-Dihydro-1H-inden-4-yl)-6-methoxy-1H-pyrazolo[4,3-b]pyridin-3-yl)-1H-pyrazol-1-yl)-3-azabicyclo[3.1.0]hexan-3-yl)-2-hydroxyethan-1-one]
< 6 |  | < 6 | 40 to 100 |  |  | COc1cc2[nH]nc(-c3ccc(N4CCC(C)(C(=O)O)CC4)nc3)c2nc1-c1cccc(C)c1C [Example 51, 1-(5-(5-(2,3-Dimethylphenyl)-6-methoxy-1H-pyrazolo[4,3-b]pyridin-3-yl)pyridin-2-yl)-4-methylpiperidine-4-carboxylic acid]
< 6 |  | < 6 | > 100 |  |  | CC(=O)N1CCN(c2ccc(-c3n[nH]c4cc(OC(F)F)c(-c5cccc(C)c5C)nc34)cn2)CC1 [Example 6, 1-(4-(5-(6-(Difluoromethoxy)-5-(2,3-dimethylphenyl)-1H-pyrazolo[4,3-b]pyridin-3-yl)pyridin-2-yl)piperazin-1-yl)ethan-1-one]
< 6 |  | < 6 | 40 to 100 |  |  | COc1cc2[nH]nc(-c3cnn(Cc4ncnn4C)c3)c2nc1-c1cccc(C)c1C [Example 3, 5-(2,3-Dimethylphenyl)-6-methoxy-3-(1-((1-methyl-1H-1,2,4-triazol-5-yl)methyl)-1H-pyrazol-4-yl)-1H-pyrazolo[4,3-b]pyridine]
< 6 | 6 to 40 |  |  |  |  | COc1cc2[nH]nc(-c3ccc(N4CCN(C(C)=O)CC4)nc3)c2nc1-c1cccc2c1CCC2 [Example 64, 1-(4-(5-(5-(2,3-Dihydro-1H-inden-4-yl)-6-methoxy-1H-pyrazolo[4,3-b]pyridin-3-yl)pyridin-2-yl)piperazin-1-yl)ethan-1-one]
< 6 |  |  | 40 to 100 |  |  | COc1cc2[nH]nc(-c3ccc(N4CCN(C)[C@H](C)C4)nc3)c2nc1-c1cccc(C)c1C [Example 47, (R)-5-(2,3-Dimethylphenyl)-3-(6-(3,4-dimethylpiperazin-1-yl)pyridin-3-yl)-6-methoxy-1H-pyrazolo[4,3-b]pyridine]
< 6 |  |  | > 100 |  |  | COc1cc2[nH]nc(-c3ccc(N4CCN(C(C)=O)CC4)nc3)c2nc1-c1cccc(CC#N)c1C [Example 55, 2-(3-(3-(6-(4-Acetylpiperazin-1-yl)pyridin-3-yl)-6-methoxy-1H-pyrazolo[4,3-b]pyridin-5-yl)-2-methylphenyl)acetonitrile]
< 6 |  | < 6 | > 100 |  |  | COc1cc2[nH]nc(-c3ccc(N4CCN(C(C)=O)CC4)nc3)c2nc1-c1cccc(C)c1C [Example 43, 1-(4-(5-(5-(2,3-Dimethylphenyl)-6-methoxy-1H-pyrazolo[4,3-b]pyridin-3-yl)pyridin-2-yl)piperazin-1-yl)ethan-1-one]
< 6 |  |  | > 100 | 6 to 40 |  | COc1cc2[nH]nc(-c3ccc(N4CCN5C[C@H](O)C[C@H]5C4)nc3)c2nc1-c1ccccc1C1CC1 [Example 92, (7R,8aS)-2-(5-(5-(2-Cyclopropylphenyl)-6-methoxy-1H-pyrazolo[4,3-b]pyridin-3-yl)pyridin-2-yl)octahydropyrrolo[1,2-a]pyrazin-7-ol]
< 6 |  |  | > 100 | 6 to 40 |  | COc1cc2[nH]nc(-c3ccc(N4CCN5C[C@H](O)C[C@H]5C4)nc3)c2nc1-c1cccc2c1CCCO2 [Example 93, (7R,8aS)-2-(5-(5-(Chroman-5-yl)-6-methoxy-1H-pyrazolo[4,3-b]pyridin-3-yl)pyridin-2-yl)octahydropyrrolo[1,2-a]pyrazin-7-ol]
< 6 |  |  | > 100 |  |  | COc1cc2[nH]nc(-c3cnn(C)c3)c2nc1-c1cccc2c1C[C@H](F)[C@@H]2O [Example 13, 2-Fluoro-4-(6-methoxy-3-(1-methyl-1H-pyrazol-4-yl)-1H-pyrazolo[4,3-b]pyridin-5-yl)-2,3-dihydro-1H-inden-1-ol]
< 6 |  |  | > 100 |  |  | COC(=O)N1CCC(n2cc(-c3n[nH]c4cc(OC)c(-c5cccc(C)c5C)nc34)cn2)CC1 [Example 70, Methyl 4-(4-(5-(2,3-dimethylphenyl)-6-methoxy-1H-pyrazolo[4,3-b]pyridin-3-yl)-1H-pyrazol-1-yl)piperidine-1-carboxylate]
< 6 |  |  | 40 to 100 |  |  | COc1cc2[nH]nc(-c3ccc(N4CCN(C)CC4C)nc3)c2nc1-c1cccc2c1CCC2 (stereo not drawn) [Example 54, 5-(2,3-Dihydro-1H-inden-4-yl)-3-(6-(2,4-dimethylpiperazin-1-yl)pyridin-3-yl)-6-methoxy-1H-pyrazolo[4,3-b]pyridine]
< 6 |  |  | > 100 |  |  | COc1cc2[nH]nc(-c3cnn(-c4ccncc4)c3)c2nc1-c1cccc2c1CCC2 [Example 32, 5-(2,3-Dihydro-1H-inden-4-yl)-6-methoxy-3-(1-(pyridin-4-yl)-1H-pyrazol-4-yl)-1H-pyrazolo[4,3-b]pyridine]
< 6 |  |  | 40 to 100 |  |  | COc1cc2[nH]nc(-c3ccc(N4C[C@@H]5C[C@H]4CN5C)nc3)c2nc1-c1cccc(C)c1C [Example 49, 5-(2,3-Dimethylphenyl)-6-methoxy-3-(6-((1S,4S)-5-methyl-2,5-diazabicyclo[2.2.1]heptan-2-yl)pyridin-3-yl)-1H-pyrazolo[4,3-b]pyridine]

Reference: patent US12083124B2 (Incyte Corporation, priority 2019, dated 2024)
